Some test systems named below: SK-MEL-28 melanoma; UACC-62 melanoma; NCI-H460 lung; SK-MEL-2 melanoma; RXF 393 renal; SNB-75 CNS; EKVX NSCLC; M14 melanoma; HL-60(TB) leukemia; SNB-19 CNS.
What all share (assay): growth of human tumour cells (NCI), 48 h

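Protocol summary: plate cells (96-well), add compound at 5 concentrations, incubate 48 h, interpolate endpoints linearly. GI50 = concentration required for 50% inhibition of growth. The concentration for full growth arrest is given as TGI.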

With `Nc1nc(-c2ccccc2)cc(-c2ccc(Cl)cc2)c1-c1nc2ccccc2o1`, the GI50 in the test with SK-MEL-28 melanoma is 17 µM; in the test on UACC-62 melanoma, 16.6 µM; in the test on NCI-H460 lung, 7.44 µM; in the test with SK-MEL-2 melanoma it was 18 µM; in the test with RXF 393 renal it was 21.5 µM; in the test on SNB-75 CNS it was 12.9 µM. The GI50 with EKVX NSCLC is 14 µM; with M14 melanoma, 14.5 µM; in the test with HL-60(TB) leukemia, 4.42 µM; in the test with SNB-19 CNS, 17.7 µM. Also, the TGI worked out at 32.6 µM in the test with SK-MEL-28 melanoma; 30.6 µM in the test with UACC-62 melanoma; 23.6 µM with NCI-H460 lung; 37.9 µM in the test with SK-MEL-2 melanoma; 44.6 µM in the test with RXF 393 renal; 26.3 µM in the test on SNB-75 CNS. The TGI in the test with EKVX NSCLC stood at 27.7 µM; with M14 melanoma, 35.4 µM; in the test with HL-60(TB) leukemia it was 17 µM; in the test with SNB-19 CNS, 37.9 µM.

For the molecule `COc1ccc(C2C3=C(COC3=O)Oc3cc4c(cc32)OCO4)cc1` (stereo not given), the TGI is above 100 µM in the test on SK-MEL-28 melanoma; above 100 µM in the test on UACC-62 melanoma; above 100 µM with NCI-H460 lung; above 100 µM in the test on SK-MEL-2 melanoma; above 100 µM in the test with RXF 393 renal; 39.7 µM in the test on SNB-75 CNS. Also, the TGI is above 100 µM in the test with EKVX NSCLC, above 100 µM in the test on M14 melanoma, 25 µM in the test with HL-60(TB) leukemia and above 100 µM in the test on SNB-19 CNS.

For `Oc1c(I)cc(I)cc1CN(Cc1ccccn1)Cc1ccccn1`, the GI50 with SK-MEL-28 melanoma is 1.44 µM; with UACC-62 melanoma it was 0.499 µM; with NCI-H460 lung, 0.456 µM; in the test with SK-MEL-2 melanoma, 2.08 µM; with RXF 393 renal, 1.86 µM; in the test on SNB-75 CNS, 0.419 µM. Also, the GI50 in the test with EKVX NSCLC was 0.987 µM; with M14 melanoma it was 0.766 µM; in the test on HL-60(TB) leukemia, 1.3 µM; in the test on SNB-19 CNS, 0.86 µM. The TGI in the test on SK-MEL-28 melanoma came out at 31.6 µM; with UACC-62 melanoma, 5.73 µM; in the test with NCI-H460 lung, 8.68 µM; in the test with SK-MEL-2 melanoma, 12.2 µM; in the test on RXF 393 renal it was 9.76 µM; in the test on SNB-75 CNS, 7.67 µM. Besides, the TGI was 17.2 µM with EKVX NSCLC, 9.86 µM in the test on M14 melanoma, 7.03 µM in the test on HL-60(TB) leukemia and above 64.2 µM in the test with SNB-19 CNS.

On to `COc1cnc2c(c1)C(=O)c1c-2n(CCCNC(C)C)c(=O)c2cc([N+](=O)[O-])ccc12`, for which the GI50 in the test with SK-MEL-28 melanoma is 0.121 µM; in the test on UACC-62 melanoma, 0.0191 µM; in the test on NCI-H460 lung it was 0.0191 µM; in the test with SK-MEL-2 melanoma, 0.195 µM; in the test on RXF 393 renal it was 0.0562 µM; in the test on SNB-75 CNS it was 0.0696 µM. Besides, the GI50 in the test with EKVX NSCLC was 0.134 µM; in the test on M14 melanoma, 0.0347 µM; in the test on HL-60(TB) leukemia, 0.0336 µM; with SNB-19 CNS, 0.0423 µM. In addition, the TGI came out at 0.351 µM with SK-MEL-28 melanoma; 0.123 µM in the test with UACC-62 melanoma; 0.126 µM with NCI-H460 lung; 0.406 µM in the test with SK-MEL-2 melanoma; 1.38 µM in the test with RXF 393 renal; 0.48 µM in the test on SNB-75 CNS. For the same molecule, the TGI in the test with EKVX NSCLC was found to be 0.706 µM; in the test on M14 melanoma, 0.135 µM; with HL-60(TB) leukemia, 0.111 µM; with SNB-19 CNS it was 0.896 µM.

As for `C=C1C(=O)O[C@H]2[C@H]1CC/C(COC(=O)NCc1cc(OC)cc(OC)c1)=C\CC[C@@]1(C)O[C@@H]21`, the GI50 in the test with SK-MEL-28 melanoma is 1.47 µM; with UACC-62 melanoma, 0.663 µM; in the test on NCI-H460 lung, 3.01 µM; in the test on SK-MEL-2 melanoma, 1.66 µM; in the test on RXF 393 renal, 0.687 µM; with SNB-75 CNS, 1.99 µM. In addition, the GI50 is 2.06 µM in the test on EKVX NSCLC, 1.64 µM with M14 melanoma, 1.69 µM in the test on HL-60(TB) leukemia and 5.32 µM in the test on SNB-19 CNS. Moreover, the TGI in the test on SK-MEL-28 melanoma was found to be 3.54 µM; in the test with UACC-62 melanoma it was 2.56 µM; in the test with NCI-H460 lung it was 11.6 µM; in the test with SK-MEL-2 melanoma, 3.54 µM; in the test on RXF 393 renal, 2.07 µM; with SNB-75 CNS it was 12.7 µM. Also, the TGI in the test on EKVX NSCLC is 6.6 µM; in the test with M14 melanoma, 3.87 µM; with HL-60(TB) leukemia, 5.03 µM; with SNB-19 CNS, 22.2 µM.

Regarding `C=C(C)[C@@H]1CC[C@]2(C(N)=O)CC[C@]3(C)[C@H](CC[C@@H]4[C@@]5(C)C/C(=C/c6cccnc6)[C@H](O)C(C)(C)[C@@H]5CC[C@]43C)[C@@H]12`, the GI50 is 6.14 µM in the test with SK-MEL-28 melanoma; 5.38 µM in the test on UACC-62 melanoma; 4.22 µM in the test on NCI-H460 lung; 4.35 µM with SK-MEL-2 melanoma; 3.61 µM in the test with RXF 393 renal; 4.29 µM in the test on SNB-75 CNS. Moreover, the GI50 in the test on EKVX NSCLC is 4.03 µM; in the test on M14 melanoma, 4.86 µM; in the test on HL-60(TB) leukemia, 2.69 µM; in the test on SNB-19 CNS, 6.02 µM. The TGI in the test on SK-MEL-28 melanoma is above 100 µM; in the test with UACC-62 melanoma it was above 100 µM; in the test with NCI-H460 lung, above 100 µM; in the test with SK-MEL-2 melanoma it was 42.9 µM; with RXF 393 renal, 52.5 µM; with SNB-75 CNS it was above 100 µM. Moreover, the TGI in the test on EKVX NSCLC was above 100 µM; in the test on M14 melanoma, above 100 µM; with HL-60(TB) leukemia it was 11.2 µM; in the test with SNB-19 CNS, above 100 µM.

In the case of `Cc1nn(C)c2cc(N(C)c3ccnc(Nc4cccc(S(N)(=O)=O)c4)n3)ccc12`, the GI50 was 9 µM with SK-MEL-28 melanoma; 5.94 µM in the test on UACC-62 melanoma; 7.87 µM in the test with NCI-H460 lung; 9.32 µM in the test with SK-MEL-2 melanoma; 5.98 µM in the test with RXF 393 renal; 5.89 µM with SNB-75 CNS. Also, the GI50 with EKVX NSCLC was 6.92 µM; in the test with M14 melanoma it was 8.11 µM; with HL-60(TB) leukemia, 5.76 µM; in the test on SNB-19 CNS it was 13.2 µM. Also, the TGI in the test with SK-MEL-28 melanoma was above 25 µM; in the test on UACC-62 melanoma, above 22.7 µM; with NCI-H460 lung, above 25 µM; in the test on SK-MEL-2 melanoma, above 25 µM; in the test on RXF 393 renal, above 19.2 µM; with SNB-75 CNS, above 23.7 µM. The TGI is above 25 µM in the test with EKVX NSCLC, above 25 µM in the test on M14 melanoma, 21.5 µM with HL-60(TB) leukemia and above 25 µM in the test with SNB-19 CNS.

`N#CSc1ccc(S(N)(=O)=O)cc1`: the TGI with SK-MEL-28 melanoma was above 100 µM; in the test on UACC-62 melanoma it was above 100 µM; in the test on NCI-H460 lung, above 100 µM; with SK-MEL-2 melanoma it was above 100 µM; in the test with RXF 393 renal it was 70.6 µM; in the test on SNB-75 CNS, above 100 µM. Besides, the TGI with EKVX NSCLC is above 100 µM; with M14 melanoma it was 45.5 µM; in the test with HL-60(TB) leukemia, 37.1 µM; in the test with SNB-19 CNS it was above 100 µM.
